Consider 14 molecules from patent US7795213B2 (POSCO, priority 2002, dated 2010).

The target of data set [1] is T1, VEGF/Aβ interaction (VEGF165, biotinylated Aβ) (Homo sapiens, UniProt P15692).
T1 sequence (P15692 27-191 isoform P15692-4 limits assumed): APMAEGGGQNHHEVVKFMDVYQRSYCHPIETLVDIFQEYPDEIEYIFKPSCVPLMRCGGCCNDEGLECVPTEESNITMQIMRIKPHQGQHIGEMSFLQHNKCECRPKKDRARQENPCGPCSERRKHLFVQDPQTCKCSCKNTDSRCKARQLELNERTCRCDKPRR
Briefly: Inhibition of biotinylated Aβ binding to coated VEGF165. Particulars: VEGF165 50 ng/well; biotinylated Aβ 100 ng/ml; increasing concentration of test compound. How it is done:
Biotinylated Aβ (100 ng/ml) was added to each well in the presence of increasing concentration of test compound. After 2 hours, each well was rinsed several times with 0.05% Tween in PBS. The bound biotinylated Aβ was determined with steptavidin conjugated with horse radish peroxidase.

The target in data set [2] is T2, VEGF/Aβ interaction (GST-heparin-binding domain, biotinylated Aβ1-42) (Homo sapiens, UniProt P15692).
T2 construct: made in house
T2 sequence (P15692 137-191 isoform P15692-4): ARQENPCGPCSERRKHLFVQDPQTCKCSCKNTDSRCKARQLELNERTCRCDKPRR
The data set can be described thus: Heparin inhibition of biotinylated Aβ1-42 binding to immobilized GST-heparin-binding domain. The settings on record: GST-heparin-binding domain 100 nM immobilized; biotinylated Aβ1-42 50 nM. How it is done: After removing unbound biotinylated Aβ, the bound peptide was determined with steptavidin conjugated with horse radish peroxidase.

In data set [3] the target is T3, Aβ (Homo sapiens, UniProt P05067).
T3 construct: Aβ (Aβ) is the major component of senile plaques and is derived from the amyloid precursor protein by proteolytic cleavage
The data set can be described thus: Determination of Aβ binding region in VEGF, immobilized GST-fusion proteins. Particulars: GST-fusion proteins 200 nM immobilized; 200 nM Aβ. How it is done: The purified proteins were analyzed with 12% SDS-polyacrylmide gel electrophoresis. […] After blocking nonspecific binding sites with 3% BSA/PBS, 200 nM of Aβ was added to each well and allowed to bind to immobilized proteins. Unbound Aβ was removed and the bound Aβ was determined with rabbit anti-Aβ antibody followed by anti-rabbit antibody conjugated with horse radish peroxidase.

For data set [4], the target named is T4, Aβ-VEGF binding (VEGF, biotinylated Aβ1-42) (Homo sapiens, UniProt P15692).
T4 sequence (P15692 27-191 isoform P15692-4 limits assumed): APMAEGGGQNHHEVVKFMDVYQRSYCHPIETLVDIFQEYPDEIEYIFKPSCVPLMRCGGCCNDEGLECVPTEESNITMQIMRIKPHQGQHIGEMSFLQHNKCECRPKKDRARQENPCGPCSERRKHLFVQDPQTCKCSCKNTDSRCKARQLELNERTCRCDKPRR
Briefly: Aβ-VEGF binding in presence of triamterene. The settings on record: 100 nM VEGF, 100 nM biotinylated Aβ1-42, 37° C., 24 hours. The protocol:
The level of the formation of the Aβ-VEGF binding was measured and compared with that of control without triamterene.

Data set [5] concerns the target T5, Aβ1-42 (Homo sapiens, UniProt P05067).
T5 construct: Aβ1-40, Aβ1-42, and Aβ40-1 (BACHEM, Bubendorf, Switzerland) were immobilized on a CM5 sensor chip; purchased BACHEM
Briefly: Thioflavin T assay of Aβ aggregation. The class given is biochemical. The settings on record: 24 hours. How it is done:
10 μM of thioflavin T was added to the mixture and sufficiently mixed. Then, the fluorescence of the mixture was measured at Ex=444 nm and Em=485 nm, and then, compared with that of control of Aβ incubated alone, to determine the affection on aggregation of Aβ.
50 μM Aβ was incubated at 37° C. for 24 hours together with triamterene of 0 μM, 4 μM, 20 μM or 100 μM, respectively, to generate aggregation of Aβ. Then, the degree of aggregation was determined by the thioflavin T assay as illustrated in Example 11.

Data set [6] deals with VEGF receptor, KDR-Fc (Homo sapiens, UniProt P35968). The settings on record: VEGF 12 nM immobilized; 0.3 nM KDR-Fc.
Protocol: After removing unbound KDR-Fc, the bound KDR-Fc was determined by binding of mouse anti-Fc antibody followed by anti-mouse antibody conjugated with horse radish peroxidase.
Data set [7] relates to PC12 cells. The data set can be described thus: MTT assay, cytotoxicity of Aβ. The format is cell-based. Also on record: dose or concentration left out as unconfirmed. Particulars: Aβ1-42 incubated with VEGF165 or GST-HBD at 37° C. for 24 hours; PC12 cells 24 hours. The protocol: The mixture was added to PC12 cells (2×10^4, cells/well, kindly provided by Dr. Pann-Ghill Suh), and then left for reaction at 37° C. for 24 hours. Then, 1/10 volume of 5 mg/ml MTT solution was added to the resulted mixture, and reacted for 2 hours. The obtained cells were lysed by 25% dimethylformamide/10% SDS. Thereafter, the absorbance of the lysate was measured at 570 nm, and then, compared with that of control of non-treated PC12 cells, to determine the reduction of MTT, and thereby determining the viability of the cells.
On the technique in general: Tetrazolium assays rely on reduction of a dye to a coloured formazan, in cell work by metabolically active cells.

Data set [8] deals with PC12 cells. Briefly: DCF fluorescence, generation of reactive oxygen species by Aβ. Particulars: PC12 cells 3 hours. The format is cell-based. How it is done:
5 μM VEGF165 or 5 μM GST-HBD and 5 μM Aβ1-42 were mixed and incubated at 37° C. for 24 hours. The mixture was added to PC12 cells (6×10^4, cells/well, kindly provided by Dr. Pann-Ghill Suh), and then left for reaction at 37° C. for 3 hours. Then, 100 μM of DCF solution was added to the resulted mixture, reacted for 30 minutes, and then washed with PBS (phosphate-buffered saline). The obtained cells were observed through a fluorescent microscope, and DCF fluorescence was measured, to calculate the level of generation of the reactive oxygen species.

For data set [9], the system named is PC12 cells. The data set can be described thus: Ethidium fluorescence assay, cytotoxicity of Aβ. The class given is cell-based. The settings on record: 5 μM Aβ1-42 incubated with VEGF or GST-HBD at 37° C. for 24 hours; PC12 cells 24 hours. The protocol: The mixture was added to PC12 cells (2×10^4, cells/well, kindly provided by Dr. Pann-Ghill Suh), and then left for reaction at 37° C. for 24 hours. Then, equal volume of 4 μM ethidium homodimer-1 was added to the resulted mixture, and reacted for 30 minutes. Thereafter, the fluorescence of the mixture was measured at Ex=530 nm and Em=645 nm, and then, compared with that of control of non-treated PC12 cells, to determine the cytotoxicity of Aβ.

In data set [10] the target is T3, Aβ. Briefly: Binding of growth factors to Aβ. The settings on record: among NGF, bFGF, PDGF, VEGF and midkine.
For data set [11], the system named is endothelial cells. Briefly: Effect of Aβ peptides on proliferation of endothelial cells induced by VEGF. The class given is cell-based. The settings on record: 1 μM; data not shown.
Data set [12] has as its system MDA-MB-231 tumor cells. The data set can be described thus: Effect of Aβ peptides on binding of VEGF to tumor cells that express neuropilin-1. The format is cell-based. Particulars: data not shown.
Data set [13] relates to endothelial cells. The data set can be described thus: Effect of Aβ peptides on binding of VEGF with the receptors on endothelial cells. Particulars: 1 μM; data not shown. The format is cell-based.
Data set [14] addresses T3, Aβ. The data set can be described thus: Inhibition of the aggregation of Aβ by Aβ-VEGF binding inhibitors. The format is biochemical.
Data set [15] has as its target T6, immobilized VEGF165 (Homo sapiens, UniProt P15692).
T6 sequence (P15692 27-191 isoform P15692-4): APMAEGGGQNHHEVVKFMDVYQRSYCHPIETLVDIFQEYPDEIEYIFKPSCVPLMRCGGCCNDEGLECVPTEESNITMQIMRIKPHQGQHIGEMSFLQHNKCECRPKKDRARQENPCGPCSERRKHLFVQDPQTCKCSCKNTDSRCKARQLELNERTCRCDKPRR
Briefly: Determination of VEGF binding region in Aβ, competition by Aβ fragments. Particulars: Aβ1-42 50 nM; 30 μM or 50 μM Aβ fragment. The protocol: After removing unbound Aβ, the bound Aβ was determined by binding of rabbit anti-Aβ antibody followed by anti-rabbit antibody conjugated with horse radish peroxidase. […] The bound biotinylated Aβ was determined with streptavidin conjugated with horse radish peroxidase.

Data set [16] deals with T7, Aβ-VEGF binding (Homo sapiens, UniProt P15692).
T7 construct: Aβ (Aβ) is the major component of senile plaques and is derived from the amyloid precursor protein by proteolytic cleavage
T7 sequence (P15692 27-191 isoform P15692-4 limits assumed): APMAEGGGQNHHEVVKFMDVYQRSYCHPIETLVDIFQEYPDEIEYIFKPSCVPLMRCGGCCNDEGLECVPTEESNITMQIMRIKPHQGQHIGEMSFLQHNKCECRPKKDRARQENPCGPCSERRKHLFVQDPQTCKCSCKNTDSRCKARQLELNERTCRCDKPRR
Briefly: Search for an inhibitor of Aβ-VEGF binding.

Where no end group is shown, it is not given here.

Sequence of VEGF receptor, KDR-Fc (P35968 with tags, fused parts or gaps limits assumed): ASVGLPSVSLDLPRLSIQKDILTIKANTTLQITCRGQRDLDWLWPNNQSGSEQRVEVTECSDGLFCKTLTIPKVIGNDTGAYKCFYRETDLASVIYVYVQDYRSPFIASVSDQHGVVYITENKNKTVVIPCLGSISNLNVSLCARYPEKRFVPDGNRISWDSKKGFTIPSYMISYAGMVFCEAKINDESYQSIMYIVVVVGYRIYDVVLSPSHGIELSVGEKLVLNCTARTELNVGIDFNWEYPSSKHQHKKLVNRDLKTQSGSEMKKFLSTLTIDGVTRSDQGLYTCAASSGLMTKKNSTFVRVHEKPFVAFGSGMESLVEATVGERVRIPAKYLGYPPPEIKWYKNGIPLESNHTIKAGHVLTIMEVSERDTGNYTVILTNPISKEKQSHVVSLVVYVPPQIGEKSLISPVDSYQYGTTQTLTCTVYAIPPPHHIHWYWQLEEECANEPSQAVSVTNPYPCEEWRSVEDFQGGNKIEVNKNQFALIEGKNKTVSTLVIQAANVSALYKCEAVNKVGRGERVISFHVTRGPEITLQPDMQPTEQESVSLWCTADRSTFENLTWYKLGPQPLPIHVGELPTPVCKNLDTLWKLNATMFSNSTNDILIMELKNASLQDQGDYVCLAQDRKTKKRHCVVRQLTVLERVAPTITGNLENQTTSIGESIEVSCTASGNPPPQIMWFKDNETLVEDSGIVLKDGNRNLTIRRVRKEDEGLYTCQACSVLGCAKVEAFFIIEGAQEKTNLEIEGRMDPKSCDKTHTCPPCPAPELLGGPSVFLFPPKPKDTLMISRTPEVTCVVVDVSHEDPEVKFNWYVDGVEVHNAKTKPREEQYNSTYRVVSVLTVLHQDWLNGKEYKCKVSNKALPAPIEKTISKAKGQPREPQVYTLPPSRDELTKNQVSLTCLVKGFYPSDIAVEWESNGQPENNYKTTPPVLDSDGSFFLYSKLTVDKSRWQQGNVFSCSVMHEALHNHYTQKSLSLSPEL

With tannic acid, the “inhibition of binding of Aβ to VEGF” value in data set [1] is “inhibition”.
In the case of heparin, the “IC50, inhibition of binding of biotinylated Aβ1-42 to heparin-binding domain” value in data set [2] was around 0.025 µg/mL.
On to “GST-CHBD: C-terminal half (amino acid 29-55) of heparin-binding domain fused to GST (CKNTDSRCKARQLELNERTCRCDKPRR; cysteine pairing not given here; also: fused to GST)”, for which the “binding of Aβ to immobilized GST-fusion protein” value in [3] is reported as “Aβ binds to C-terminal sub-domain of heparin-binding domain”.
Regarding `Nc1nc(N)c2nc(-c3ccccc3)c(N)nc2n1` [triamterene], the “inhibition of the Aβ-VEGF binding” value in data set [4] is “concentration-dependently inhibits the binding between Aβ and VEGF”. For the same molecule, the “affection on aggregation of Aβ (thioflavin T)” value in data set [5] (50 μM Aβ, 37° C., triamterene 0, 4, 20 or 100 μM) is on record as “no affection on aggregation of Aβ regardless of the concentration”. Further, the “affection on the VEGF-VEGF receptor binding” value in [6] is “no affection on the VEGF-VEGF receptor binding regardless of the concentration”.
Consider “HBD: full heparin-binding domain of VEGF165 (SEQ ID NO:2) fused to GST (ARQENPCGPCSERRKHLFVQDPQTCKCSCKNTDSRCKARQLELNERTCRCDKPRR; cysteine pairing not given here; also: fused to GST)”, for which, in [7], the “inhibition of the cytotoxicity of Aβ (MTT reduction)” value is on record as “exhibits the activity to inhibit the cytotoxicity of Aβ”. The “generation of the reactive oxygen species, treatment alone” value in [8] (5 μM VEGF165 or 5 μM GST-HBD alone) is recorded as “no effect on the generation of the reactive oxygen species”. Moreover, the “generation of the reactive oxygen species by Aβ, treatment together with Aβ” value in data set [8] (5 μM VEGF165 or 5 μM GST-HBD with 5 μM Aβ1-42) is reported as “inhibitory effect on the generation of the reactive oxygen species by Aβ”. The “inhibition of the cytotoxicity of Aβ (ethidium homodimer-1 fluorescence)” value in data set [9] is given as “inhibit the cytotoxicity of Aβ depending on the concentration”. Further, the “inhibition of aggregation of Aβ (thioflavin T)” value in data set [5] (50 μM Aβ1-42, 37° C., VEGF or GST-HBD at various concentrations) is listed as “inhibit aggregation of Aβ depending on the concentration”.
With bFGF: basic fibroblast growth factor, the “binding of growth factor to Aβ” value in data set [10] is “only VEGF and midkine bound to A”.
Turning to “Aβ1-42: β-amyloid peptide 1-42, SEQ ID NO:4”, in [11], the “effect on the proliferation of endothelial cells induced by VEGF” value is on record as “Neither Aβ1-40 nor Aβ1-42, even at a high concentration (1 μM), affected”. The “effect on the binding of VEGF to MDA-MB-231 tumor cells” value in data set [12] was “Neither did Aβ1-40 nor Aβ1-42 affect”. In addition, the “effect on the binding of VEGF with the receptors on endothelial cells” value in data set [13] was “Neither Aβ1-40 nor Aβ1-42, even at a high concentration (1 μM), affected”.
PDGF: in [10], the “binding of growth factor to Aβ” value was “only VEGF and midkine bound to A”.
On the same count and under the same terms, to NGF: nerve growth factor belongs “only VEGF and midkine bound to A”.
With `O=C(O[C@@H]1Cc2c(O)cc(O)cc2O[C@@H]1c1cc(O)c(O)c(O)c1)c1cc(O)c(O)c(O)c1` [EGCG, epigallocatechin gallate, reference compound], the “inhibition of binding of Aβ to VEGF” value in data set [1] is “inhibition”. Also, the “activity to inhibit the aggregation of Aβ by itself” value in [14] was “additional activity to inhibit the aggregation of Aβ by itself”.
In the case of “Aβ25-35: partial fragment of Aβ, residues 25-35 of SEQ ID NO:4 (GSNRGAIIGLM; listed as Homo sapiens)”, the “competition with Aβ for binding to immobilized VEGF165” value in [15] is “competes with Aβ for its binding to immobilized VEGF165”.
With fucoidan, the “inhibitor of Aβ-VEGF binding (search)” value in data set [16] is listed as “searched as an inhibitor of Aβ-VEGF binding”. Moreover, the “activity to inhibit the aggregation of Aβ by itself” value in data set [14] is on record as “additional activity to inhibit the aggregation of Aβ by itself”.
As to “Aβ1-40: β-amyloid peptide residues 1-40 (BACHEM)”, the “effect on the proliferation of endothelial cells induced by VEGF” value in [11] is “Neither Aβ1-40 nor Aβ1-42, even at a high concentration (1 μM), affected”. For the same molecule, the “effect on the binding of VEGF to MDA-MB-231 tumor cells” value in data set [12] is on record as “Neither did Aβ1-40 nor Aβ1-42 affect”. Besides, the “effect on the binding of VEGF with the receptors on endothelial cells” value in data set [13] is listed as “Neither Aβ1-40 nor Aβ1-42, even at a high concentration (1 μM), affected”.

B1: midkine: heparin-binding, neurotrophic growth factor whose expression occurs mainly in fetus (protein)
chain: VAKKKDKVKKGGPGSECAEWAWGPCTPSSKDCGVGFREGTCGAQTQRIRCRVPCNWKKEFGADCKYKFENWGACDGGTGTKVRQGTLKKARYNAQCQETIRVTKPCTPKTKAKAKAKKGKGKD
With B1, in data set [10], the “binding of growth factor to Aβ” value was “bound to A”.
